Experimental data reported in US9622482B2, “Methods for increasing oil palm yield” (Valent BioSciences Corporation, priority 2014, dated 2017).

Experiments:
oil palm = assay: Pre-harvest bunch-directed spray on oil palm, fruit abscission (cumulative loose fruit and loose mass); type: in vivo, oil palm (cross between Compact and Ghana); settings: for % Difference with UTC (Cumulative Loose Fruit) / % Difference with UTC (Cumulative Loose Mass) / Cumulative Loose Mass / Cumulative Loose Fruit: single spray 100 mL/bunch; for % Difference with UTC (Cumulative Loose Fruit) / % Difference with UTC (Cumulative Loose Mass) / Cumulative Loose Mass: 14 days; for Cumulative Loose Fruit: counted for 14 days
Method: A study was conducted in a plantation in Costa Rica to compare the effects of single bunch-directed applications of: (1) untreated control (water sprayed); (2) AVG at 500 ppm active ingredient (a.i.); (3) 240 ppm a.i. of STS; (4) 720 ppm a.i. of STS; (5) 2,200 ppm a.i. of STS; and (6) 6,600 ppm a.i. of STS. In this study, AVG was provided in a formulation as AVG-HCl at a concentration of 20%. STS was prepared using a 100 mM sodium thiosulfate treatment. For each treatment, 23 palms were randomly selected covering about 15 hectares. The variety of plants used was a cross between Compact and Ghana. The plants were three years old at the time of treatment. A CO2 sprayer was used to spray all treatments (100 mL/bunch) to bunches with 1 to 4 loose fruits. The time required to spray each bunch was about 8 seconds at 20 psi using a 2.0 full cone nozzle. The treatments were applied once per bunch. Ten and thirteen bunches per treatment were sprayed on Apr. 15 and 22, 2015, respectively. Cumulative loose fruit (CLF) and cumulative loose mass (CLM) counts were determined on a daily basis for 14 days with the exception of day 4 and day 9 (for second spray only) and day 11 (after initial spray only) as measure to objectively quantify fruit abscission. An electronic balance was used to weigh all fruit. All loose fruit on the bunch, branches and on the ground was counted and weighed.

oil palm fruit [1] = settings: preharvest application to attached bunches; cited from earlier work
oil palm fruit [2] = settings: postharvest application, detached bunches; cited from earlier work
[3] = 240 to 6,600 ppm a.i., overall statement

silverthiosulfate [STS]
% Difference with UTC (Cumulative Loose Fruit) (oil palm; 240 ppm a.i.): 14.4%
% Difference with UTC (Cumulative Loose Mass) (oil palm; 240 ppm a.i.): −0.4%
Cumulative Loose Mass (oil palm; 240 ppm a.i.): 1106 g
Cumulative Loose Fruit (oil palm; 240 ppm a.i.): 129.0
effect on cumulative loose fruit (oil palm; [3]): did not consistently decrease
effect on cumulative loose mass (oil palm; [3]): did not consistently decrease
% Difference with UTC (Cumulative Loose Fruit) (oil palm; 720 ppm a.i.): 18.7%
% Difference with UTC (Cumulative Loose Mass) (oil palm; 720 ppm a.i.): 11.3%
Cumulative Loose Mass (oil palm; 720 ppm a.i.): 977 g
Cumulative Loose Fruit (oil palm; 720 ppm a.i.): 124.7
% Difference with UTC (Cumulative Loose Fruit) (oil palm; 2,200 ppm a.i.): −15.7%
% Difference with UTC (Cumulative Loose Mass) (oil palm; 2,200 ppm a.i.): −26.4%
Cumulative Loose Mass (oil palm; 2,200 ppm a.i.): 1392 g
Cumulative Loose Fruit (oil palm; 2,200 ppm a.i.): 159.1
% Difference with UTC (Cumulative Loose Fruit) (oil palm; 6,600 ppm a.i.): 25.9%
% Difference with UTC (Cumulative Loose Mass) (oil palm; 6,600 ppm a.i.): 7.3%
Cumulative Loose Mass (oil palm; 6,600 ppm a.i.): 1020 g
Cumulative Loose Fruit (oil palm; 6,600 ppm a.i.): 117.5

O=P(O)(O)CCCl [ethephon, 2-chloroethyl phosphonic acid]
increase of oil content (oil palm fruit [1]): 7%

NCCO/C=C/[C@H](N)C(=O)O [AVG, aminoethyoxyvinylglycine, reference compound]
% Difference with UTC (Cumulative Loose Fruit) (oil palm; 500 ppm a.i.): 71.4%
% Difference with UTC (Cumulative Loose Mass) (oil palm; 500 ppm a.i.): 70.8%
Cumulative Loose Mass (oil palm; 500 ppm a.i.): 321 g
Cumulative Loose Fruit (oil palm; 500 ppm a.i.): 72.0

NOCC(=O)O [AOA, aminooxyacetic acid]
abscission of oil palm fruit (oil palm fruit [2]): delayed or suppressed abscission
